The results in this text go back to patent publication US20090311217A1, “3-SUBSTITUTED-1H-INDOLE COMPOUNDS, THEIR USE AS MTOR KINASE AND PI3 KINASE INHIBITORS, AND THEIR SYNTHESES” (priority 2008, published 2009).

For orientation: IC50 means the point on the concentration scale where inhibition reaches its midpoint.

A value given as a limit tells only on which side of the number the result lay.

Common to all, as to assay type: biochemical
The target in test [1] is PI3K-gamma (Homo sapiens, UniProt P48736). The test is described as follows: PI3K-gamma fluorescence polarization assay. The note with it: PI3Kγ Avg. IC50. In a few lines: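 Inhibition is derived from a polarization signal: after a 1 h, 25° C kinase step (25 μM ATP, 2.5 μM diC8-PIP2, pH 7), EDTA stops the reaction and the GRP1 PH domain/TMR-IP4 pair reports lipid product.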
Sequence of PI3K-gamma (P48736 whole entry, species assumed, the tested form may be a part): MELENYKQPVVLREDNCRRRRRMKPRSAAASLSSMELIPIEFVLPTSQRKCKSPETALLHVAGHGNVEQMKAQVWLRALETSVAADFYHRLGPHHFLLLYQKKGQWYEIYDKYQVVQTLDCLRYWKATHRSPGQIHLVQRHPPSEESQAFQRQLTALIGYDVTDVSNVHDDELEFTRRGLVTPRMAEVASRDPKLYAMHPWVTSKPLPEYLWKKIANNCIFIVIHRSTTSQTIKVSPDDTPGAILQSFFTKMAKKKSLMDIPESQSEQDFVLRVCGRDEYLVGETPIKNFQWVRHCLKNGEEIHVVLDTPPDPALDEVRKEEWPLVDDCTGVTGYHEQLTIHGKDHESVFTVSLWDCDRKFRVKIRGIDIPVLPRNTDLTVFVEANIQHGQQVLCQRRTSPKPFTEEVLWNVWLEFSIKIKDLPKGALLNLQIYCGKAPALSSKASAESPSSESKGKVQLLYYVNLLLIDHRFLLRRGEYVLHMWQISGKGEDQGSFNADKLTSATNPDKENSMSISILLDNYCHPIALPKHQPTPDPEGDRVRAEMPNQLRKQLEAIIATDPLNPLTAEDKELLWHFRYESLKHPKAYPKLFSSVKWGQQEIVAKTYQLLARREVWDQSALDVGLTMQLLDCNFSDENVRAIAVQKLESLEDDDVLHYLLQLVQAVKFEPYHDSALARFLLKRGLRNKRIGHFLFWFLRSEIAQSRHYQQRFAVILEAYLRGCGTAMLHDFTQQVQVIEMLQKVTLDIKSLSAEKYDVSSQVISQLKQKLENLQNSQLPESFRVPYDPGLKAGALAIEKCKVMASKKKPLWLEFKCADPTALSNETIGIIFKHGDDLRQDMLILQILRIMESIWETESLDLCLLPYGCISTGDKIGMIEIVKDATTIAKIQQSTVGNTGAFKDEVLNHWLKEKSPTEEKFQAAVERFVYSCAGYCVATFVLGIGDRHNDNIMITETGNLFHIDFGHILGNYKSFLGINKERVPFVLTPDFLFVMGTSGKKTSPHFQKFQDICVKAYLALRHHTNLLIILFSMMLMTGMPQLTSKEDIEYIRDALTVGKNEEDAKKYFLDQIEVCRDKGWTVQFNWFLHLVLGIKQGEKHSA

Test [2] deals with PI3K-alpha (Homo sapiens, UniProt P42336). The test is described as follows: PI3K-alpha fluorescence polarization assay. The settings on record: read-out: PI3Kα Avg. IC50. Background: In fluorescence polarisation assays a small probe gives low polarisation when free and higher when bound to something large.
Sequence of PI3K-alpha (P42336 whole entry, species assumed): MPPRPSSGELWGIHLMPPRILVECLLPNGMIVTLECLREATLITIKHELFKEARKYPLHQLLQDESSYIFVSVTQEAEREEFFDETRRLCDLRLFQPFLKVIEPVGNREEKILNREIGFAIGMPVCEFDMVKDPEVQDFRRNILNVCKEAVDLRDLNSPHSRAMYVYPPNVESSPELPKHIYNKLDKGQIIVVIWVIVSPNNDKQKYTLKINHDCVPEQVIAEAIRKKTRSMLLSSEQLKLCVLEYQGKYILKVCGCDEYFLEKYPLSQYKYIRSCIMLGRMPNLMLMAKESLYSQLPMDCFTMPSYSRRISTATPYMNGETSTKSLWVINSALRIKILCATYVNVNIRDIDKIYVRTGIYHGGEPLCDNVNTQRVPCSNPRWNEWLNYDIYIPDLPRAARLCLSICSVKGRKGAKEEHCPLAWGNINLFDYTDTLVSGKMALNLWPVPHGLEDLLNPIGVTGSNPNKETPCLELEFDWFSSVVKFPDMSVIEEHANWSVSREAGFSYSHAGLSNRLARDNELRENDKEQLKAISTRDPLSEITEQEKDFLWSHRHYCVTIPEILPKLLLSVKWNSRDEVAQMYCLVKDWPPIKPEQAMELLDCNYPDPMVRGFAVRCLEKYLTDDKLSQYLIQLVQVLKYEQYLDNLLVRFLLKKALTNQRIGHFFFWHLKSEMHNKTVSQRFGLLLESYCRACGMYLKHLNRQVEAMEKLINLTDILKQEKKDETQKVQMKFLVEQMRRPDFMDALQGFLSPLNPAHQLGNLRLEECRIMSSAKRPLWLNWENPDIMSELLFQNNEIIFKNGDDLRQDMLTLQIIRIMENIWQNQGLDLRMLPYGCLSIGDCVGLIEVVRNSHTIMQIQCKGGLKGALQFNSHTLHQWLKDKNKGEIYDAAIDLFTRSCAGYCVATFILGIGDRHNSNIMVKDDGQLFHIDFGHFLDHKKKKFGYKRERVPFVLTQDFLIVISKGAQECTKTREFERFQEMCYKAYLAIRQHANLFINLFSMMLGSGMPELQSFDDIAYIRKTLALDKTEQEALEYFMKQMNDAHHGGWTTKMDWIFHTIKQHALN
Sequence of PI3K-alpha (P27986 whole entry partner, species assumed): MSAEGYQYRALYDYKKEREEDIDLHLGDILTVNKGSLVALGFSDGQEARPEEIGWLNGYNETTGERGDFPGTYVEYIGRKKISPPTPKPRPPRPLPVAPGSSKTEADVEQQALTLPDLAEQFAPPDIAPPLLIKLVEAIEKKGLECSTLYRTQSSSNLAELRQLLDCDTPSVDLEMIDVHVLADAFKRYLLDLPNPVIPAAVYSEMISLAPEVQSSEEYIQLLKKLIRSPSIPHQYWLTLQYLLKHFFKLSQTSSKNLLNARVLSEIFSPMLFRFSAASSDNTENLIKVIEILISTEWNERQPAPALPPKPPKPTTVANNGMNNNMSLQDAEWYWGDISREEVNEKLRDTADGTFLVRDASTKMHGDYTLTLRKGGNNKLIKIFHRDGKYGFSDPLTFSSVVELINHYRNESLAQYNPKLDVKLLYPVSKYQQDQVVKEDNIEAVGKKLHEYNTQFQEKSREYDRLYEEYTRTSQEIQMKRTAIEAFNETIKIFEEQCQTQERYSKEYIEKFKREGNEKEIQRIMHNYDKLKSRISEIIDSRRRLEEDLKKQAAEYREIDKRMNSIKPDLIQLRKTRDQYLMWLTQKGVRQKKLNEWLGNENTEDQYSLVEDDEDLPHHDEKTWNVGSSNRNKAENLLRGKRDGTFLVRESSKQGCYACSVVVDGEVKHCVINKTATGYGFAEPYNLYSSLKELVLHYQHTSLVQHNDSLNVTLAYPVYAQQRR
Test [3] concerns the target T1, human TOR (Homo sapiens, UniProt P42345).
T1 construct: FLAG
The test is described as follows: mTOR enzyme assay (DELFIA, His6-S6K substrate). The settings on record: read-out: mTOR Kinase Avg. IC50.

On to `COc1ccc2c(c1)c(/C=C1\Oc3cc(-c4cnc(N)nc4)ccc3C1=O)cn2CCCN(C)C` [Example 427, (2Z)-6-(2-Aminopyrimidin-5-yl)-2-({1-[3-(dimethylamino)propyl]-5-methoxy-1H-indol-3-yl}methylene)-1-benzofuran-3(2H)-one], for which the IC50 was 3.03 µM in test [1], 9.53 µM in test [2] and above 20 µM in test [3].
Regarding `COc1cc(F)c2[nH]c(-c3c(C)nn(C)c3C)c(/C=C3\Oc4ccc(NC(=O)Nc5ccc(C(=O)N6CCC(N(C)C)CC6)cc5)cc4C3=O)c2c1` [Compound 729, 1-(4-{[4-(dimethylamino)piperidin-1-yl]carbonyl}phenyl)-3-[(2Z)-2-{[7-fluoro-5-methoxy-2-(1,3,5-trimethyl-1H-pyrazol-4-yl)-1H-indol-3-yl]methylidene}-3-oxo-2,3-dihydro-1-benzofuran-5-yl]urea], the IC50 in test [1] turned out to be 0.0029 µM; in test [2], 0.00035 µM; in test [3] it was 0.001 µM.
On to `Cn1cc(/C=C2\Oc3cc(O)cc(O)c3C2=O)c2c(-c3cccc(C#N)c3)cccc21` [Example 367, 3-{3-[(Z)-(4,6-Dihydroxy-3-oxo-1-benzofuran-2(3H)-ylidene)methyl]-1-methyl-1H-indol-4-yl}benzonitrile], for which the IC50 stood at 5.42 µM in test [1], 1.44 µM in test [2] and 0.5 µM in test [3].
Turning to `CNC(=O)c1ccc(-c2cccc3c2c(/C=C2\Oc4cc(O)cc(O)c4C2=O)cn3C)cc1` [Example 392, 4-{3-[(Z)-(4,6-dihydroxy-3-oxo-1-benzofuran-2(3H)-ylidene)methyl]-1-methyl-1H-indol-4-yl}-N-methylbenzamide], the values for the IC50 in test [1], in test [2] and in test [3] were above 7.18 µM, 0.453 µM and 0.017 µM, respectively.
Turning to `O=C1C(=Cc2c[nH]c3cccc(-c4ccccc4)c23)Oc2cc(O)cc(O)c21` [Example 269, 4,6-dihydroxy-2-[(4-phenyl-1H-indol-3-yl)methylene]-1-benzofuran-3(2H)-one], the IC50 was 2.21 µM in test [1], 1.64 µM in test [2] and 1.06 µM in test [3].
In the same order, the values of `COc1ccc2[nH]c(C)c(C=C3Oc4c(ccc(O)c4O)C3=O)c2c1` [Example 69, 6,7-dihydroxy-2-[(5-methoxy-2-methyl-1H-indol-3-yl)methylene]-1-benzofuran-3(2H)-one] are 3.5 µM, 0.399 µM and above 20 µM.
Turning to `Cn1cc(/C=C2\Oc3cc(O)cc(O)c3C2=O)c2c(-c3cccc(F)c3)cccc21` [Example 365, (2Z)-2-{[4-(3-Fluorophenyl)-1-methyl-1H-indol-3-yl]methylene}-4,6-dihydroxy-1-benzofuran-3(2H)-one], the IC50 in test [1] is 1.96 µM; in test [2], 0.437 µM; in test [3], 0.104 µM.
In the case of `COc1ccc2c(c1)c(/C=C1\Oc3cc(Br)ccc3C1=O)cn2CCCN(C)C` [Example 413, (2Z)-6-bromo-2-({1-[3-(dimethylamino)propyl]-5-methoxy-1H-indol-3-yl}methylene)-1-benzofuran-3(2H)-one], the IC50 is 5.61 µM in test [1], 7.82 µM in test [2] and above 20 µM in test [3].
For `COc1ccc2c(c1)c(/C=C1\Oc3cc(O)cc(O)c3C1=O)cn2CCn1ccnc1` [Example 312, (2Z)-4,6-Dihydroxy-2-({1-[2-(1H-imidazol-1-yl)ethyl]-5-methoxy-1H-indol-3-yl}methylene)-1-benzofuran-3(2H)-one], the IC50 in test [1] turned out to be 0.0815 µM; in test [2], 0.0095 µM; in test [3], 0.152 µM.
In the same order, the values of `CNCCNC(=O)c1ccc(NC(=O)Nc2ccc3c(c2)C(=O)/C(=C/c2c(C)n(C)c4ccc(OC)cc24)O3)cc1` [Compound 661, 4-[({(2Z)-2-[(5-methoxy-1,2-dimethyl-1H-indol-3-yl)methylene]-3-oxo-2,3-dihydro-1-benzofuran-5-yl}carbamoyl)amino]-N-[2-(methylamino)ethyl]benzamide] are 0.002 µM, 0.0003 µM and 0.006 µM.
Regarding `COc1ccc2[nH]c(-c3c(C)nn(C)c3C)c(/C=C3\Oc4ccc(NC(=O)Nc5ccc(C(=O)N(C)C)cc5)cc4C3=O)c2c1` [Compound 704, 4-({[(2Z)-2-{[5-methoxy-2-(1,3,5-trimethyl-1H-pyrazol-4-yl)-1H-indol-3-yl]methylidene}-3-oxo-2,3-dihydro-1-benzofuran-5-yl]carbamoyl}amino)-N,N-dimethylbenzamide], the IC50 in test [1] is 0.004 µM; in test [2] it was 0.0006 µM; in test [3], 0.004 µM.
For the molecule `O=C1C(=Cc2c[nH]c3ccc(O)cc23)Oc2cc(O)cc(O)c21` [Example 164, 4,6-dihydroxy-2-[(5-hydroxy-1H-indol-3-yl)methylene]-1-benzofuran-3(2H)-one], the 50% inhibitory concentration (IC50) in test [1] turned out to be 3.85 µM; in test [2], 0.251 µM; in test [3], 5.2 µM.
For `CCn1cc(/C=C2\Oc3ccc(NC(=O)Nc4ccc(C(=O)N5CCN(C)CC5)cc4)cc3C2=O)c2cc(OC)ccc21` [Compound 642, 1-{(2Z)-2-[(1-ethyl-5-methoxy-1H-indol-3-yl)methylene]-3-oxo-2,3-dihydro-1-benzofuran-5-yl}-3-{4-[(4-methylpiperazin-1-yl)carbonyl]phenyl}urea], the IC50 is 0.008 µM in test [1], 0.00095 µM in test [2] and 2.6 µM in test [3].
`COc1ccc2[nH]cc(C=C3Oc4cc(SC)ccc4C3=O)c2c1` [Example 434, 2-[(5-Methoxy-1H-indol-3-yl)methylene]-6-(methylthio)-1-benzofuran-3(2H)-one]: the half-inhibitory concentration (IC50) in test [1] was above 10 µM; in test [2], above 10 µM; in test [3], above 20 µM.
In the case of `Cn1cc(/C=C2\Oc3cccc(O)c3C2=O)c2ccccc21` [Example 441, (2Z)-4-Hydroxy-2-[(1-methyl-1H-indol-3-yl)methylene]benzofuran-3(2H)-one], the IC50 in test [1] was above 10 µM; in test [2], above 10 µM; in test [3], above 20 µM.
As for `CNCCNC(=O)c1ccc(NC(=O)Nc2ccc3c(c2)C(=O)/C(=C/c2c(C)n(CCN4CCN(C)CC4)c4ccc(OC)cc24)O3)cc1` [Compound 669, 4-({[(2Z)-2-({5-methoxy-2-methyl-1-[2-(4-methylpiperazin-1-yl)ethyl]-1H-indol-3-yl}methylidene)-3-oxo-2,3-dihydro-1-benzofuran-5-yl]carbamoyl}amino)-N-[2-(methylamino)ethyl]benzamide], the IC50 came out at 0.029 µM in test [1], 0.0006 µM in test [2] and 0.004 µM in test [3].
Taken in the same sequence, the figures for `Cn1cc(/C=C2\Oc3cccc(O)c3C2=O)c2c(-c3ccccc3)cccc21` [Example 400, (2Z)-4-Hydroxy-2-[(1-methyl-4-phenyl-1H-indol-3-yl)methylene]-1-benzofuran-3(2H)-one] were above 10 µM, above 10 µM and above 19.5 µM.
As to `O=C(O)c1ccc2[nH]cc(C=C3Oc4cc(O)cc(O)c4C3=O)c2c1` [Example 165, 3-[(4,6-dihydroxy-3-oxo-1-benzofuran-2(3H)-ylidene)methyl]-1H-indole-5-carboxylic acid], the IC50 in test [1] was above 10 µM; in test [2], 9.5 µM; in test [3], above 20 µM.
With `COc1ccc2c(c1)c(/C=C1\Oc3cc(O)cc(O)c3C1=O)c(C1CCC1)n2CCN1CCN(C)CC1` [Example 446, (2Z)-2-({2-Cyclobutyl-5-methoxy-1-[2-(4-methylpiperazin-1-yl)ethyl]-1H-indol-3-yl}methylene)-4,6-dihydroxy-1-benzofuran-3(2H)-one], the IC50 stood at 0.081 µM in test [1], 0.0035 µM in test [2] and 0.00375 µM in test [3].
For `COc1ccc2c(c1)c(/C=C1\Oc3c(ccc(O)c3F)C1=O)c(C)n2CCN1CCN(C)CC1` [Example 457, (2Z)-7-Fluoro-6-hydroxy-2-({5-methoxy-2-methyl-1-[2-(4-methylpiperazin-1-yl)ethyl]-1H-indol-3-yl}methylene)-1-benzofuran-3(2H)-one], the IC50 is 5.05 µM in test [1], 0.074 µM in test [2] and above 20 µM in test [3].
As to `Cn1cc(/C=C2\Oc3cc(O)cc(O)c3C2=O)c2c(-c3ccc(C(=O)N4CCCC4)cc3)cccc21` [Example 396, (2Z)-4,6-Dihydroxy-2-({1-methyl-4-[4-(pyrrolidin-1-ylcarbonyl)phenyl]-1H-indol-3-yl}methylene)-1-benzofuran-3(2H)-one], the figures for the IC50 in test [1], in test [2] and in test [3] were 0.448 µM, 0.547 µM and 0.03 µM, respectively.
Consider `COc1ccc2[nH]c(-c3c(C)nn(C)c3C)c(/C=C3\Oc4ccc(NC(=O)Nc5ccc(C(=O)N6CCN(C)CC6)cc5)cc4C3=O)c2c1` [Compound 689, 1-[(2Z)-2-{[5-methoxy-2-(1,3,5-trimethyl-1H-pyrazol-4-yl)-1H-indol-3-yl]methylidene}-3-oxo-2,3-dihydro-1-benzofuran-5-yl]-3-{4-[(4-methylpiperazin-1-yl)carbonyl]phenyl}urea], for which the IC50 in test [1] is 0.0025 µM; in test [2], 0.0002 µM; in test [3] it was 0.004 µM.
For the molecule `COc1ccc2[nH]cc(/C=C3\Oc4cc(O)ccc4C3=O)c2c1` [Example 414, (2Z)-6-Hydroxy-2-[(5-methoxy-1H-indol-3-yl)methylene]-1-benzofuran-3(2H)-one], the IC50 in test [1] was 0.281 µM; in test [2], 0.055 µM; in test [3], 1.85 µM.
As to `Cn1cc(C=C2Oc3cc(O)cc(O)c3C2=O)c2cccc([N+](=O)[O-])c21` [Example 229, 4,6-dihydroxy-2-[(1-methyl-7-nitro-1H-indol-3-yl)methylene]-1-benzofuran-3(2H)-one], the IC50 is above 10 µM in test [1], 0.735 µM in test [2] and 8.3 µM in test [3].
